Laboratory results as given in article PMC11255275, “Structural insights into the triple agonism at GLP-1R, GIPR and GCGR manifested by retatrutide” (Cell Discovery, 2024).
Like-named read-outs stand apart in the source and are kept apart here.

Tests used:
[1] = cited from earlier work; for average weight loss: 12 mg dose group
Source text: The most successful treatments currently available include glucagon-like peptide-1 (GLP-1) receptor agonists (GLP-1RAs), exemplified by semaglutide (approved in 2017, $19.9 billion sales in 2023)[3] and tirzepatide (approved in 2022, $5.3 billion sales in 2023)[4]. […] For humans, events were mild, such as 50 1 ascending (PMID: 4 months ...

[2] = biological target: T1, GLP-1R mutants (Homo sapiens, UniProt P43220, E364A); experiment: cAMP accumulation, single-point mutated GLP-1R; format: cell-based; settings: GLP-1R E364(6.53b)A, HEK-293T, 40 min, TR-FRET, mean ± S.E.M., n at least 3
T1 construct: expressed in transfected cells; host or cells: HEK-293T
Description: (§1) HEK-293T cells were maintained at 37°C in 5% CO2 incubator and seeded onto 6-well cell […]
(§2) culture plates before transfection. After overnight culture, the cells were transiently transfected […]
(§3) with various constructs using Lipofectamine 2000 transfection reagent (Invitrogen). After 24 h, […]
(§4) the transfected cells were seeded onto 384-microtiter plates at a density of 3,000 cells per well […]
(§5) in stimulation buffer (HBSS supplemented with 5 mM HEPES, 0.1% (w/v) casein and 0.5 mM […]
(§6) 3-isobutyl-1-methylxanthine). Different concentrations of retatrutide in stimulation buffer were […]
(§7) added, and the stimulation lasted for 40 min. The reaction was stopped by addition of cAMP […]
(§8) detection buffer containing Eu-cAMP tracer and ULight-anti-cAMP. Plates were then incubated for […]
(§9) 60 min at RT. Time-resolved FRET signals were measured at 620 nm and 665 nm, respectively, by […]
(§10) an EnVision multilabel plate reader (PerkinElmer). Data were analyzed in GraphPad PRISM 9.5 […]
(§11) and all values were normalized to that of the wild-type (WT).
(§12) Supplementary Fig. 5 Effects of receptor mutation on retatrutide-induced cAMP […]
(§13) accumulation. a-c, Signaling profiles of GLP-1R (a), GIPR (b) and GCGR (c) mutants. cAMP […]
(§14) accumulation was measured in wild-type (WT) and single-point mutated GLP-1R, GIPR or […]
(§15) GCGR expressing HEK-293T cells. cAMP levels were normalized to the maximum response […]
(§16) of the WT and dose-response curves were analyzed using a three-parameter logistic equation.
(§17) Data were generated and graphed as means ± S.E.M. of at least three independent experiments performed in quadruplicate.
(§18) (1 picture or pasted object on this page, not shown here)
(§19) Supplementary Ta b l e S 5 Effects of the ligand-binding pocket residue mutation on retatrutide- […]
(§20) induced cAMP signaling at GLP-1R, GIPR or GCGR. […]
(§21) cAMP levels were normalized to the maximum response of the wild-type (WT) and dose-response […]
(§22) curves were analyzed using a three-parameter logistic equation to obtain pEC50 and Emax values. The […]
(§23) experiments were carried out independently at least three times. Data shown are means ± S.E.M. One- […]
(§24) way ANOVA was used to determine statistical difference. N.D., values that could not be determined due […]
(§25) to incomplete curve fits. *P< 0.05, **P< 0.01, ***P< 0.001 and ****P<0.0001.

[3] = biological target: T2, GLP-1R mutants (Homo sapiens, UniProt P43220, E387A); experiment: cAMP accumulation, single-point mutated GLP-1R; format: cell-based; settings: GLP-1R E387(7.42b)A; HEK-293T, 40 min, TR-FRET; mean ± S.E.M., n at least 3
T2 construct: expressed in transfected cells; host or cells: HEK-293T
Description: as §1, §2, §3, §4, §5, §6, §7, §8, §9, §10, §11, §12, §13, §14, §15, §16, §17, §18, §19, §20, §21, §22, §23, §24, §25

[4] = test system: GLP-1R mutants; experiment: cAMP accumulation, single-point mutated GLP-1R; format: cell-based, human; settings: GLP-1R E138(1.33b)R, relative to WT
Description: as §1, §2, §3, §4, §5, §6, §7, §8, §9, §10, §11, §12, §13, §14, §15, §16, §17, §18, §19, §20, §21, §22, §23, §24, §25

[5] = biological target: T3, GLP-1R mutants (Homo sapiens, UniProt P43220, Y205A); experiment: cAMP accumulation, single-point mutated GLP-1R; format: cell-based; settings: GLP-1R Y205(2.75b)A, HEK-293T, 40 min, TR-FRET, mean ± S.E.M., n at least 3
T3 construct: expressed in transfected cells; host or cells: HEK-293T
Description: as §1, §2, §3, §4, §5, §6, §7, §8, §9, §10, §11, §12, §13, §14, §15, §16, §17, §18, §19, §20, §21, §22, §23, §24, §25

[6] = biological target: T4, GLP-1R mutants (Homo sapiens, UniProt P43220, W214A); experiment: cAMP accumulation, single-point mutated GLP-1R; format: cell-based; settings: GLP-1R W214(ECL1)A; HEK-293T, 40 min, TR-FRET; mean ± S.E.M., n at least 3
T4 construct: expressed in transfected cells; host or cells: HEK-293T
Description: as §1, §2, §3, §4, §5, §6, §7, §8, §9, §10, §11, §12, §13, §14, §15, §16, §17, §18, §19, §20, §21, §22, §23, §24, §25

[7] = biological target: T5, GLP-1R mutants (Homo sapiens, UniProt P43220, W91A); experiment: cAMP accumulation, single-point mutated GLP-1R; format: cell-based; settings: GLP-1R W91(ECD)A, HEK-293T, 40 min, TR-FRET, mean ± S.E.M., n at least 3
T5 construct: expressed in transfected cells; host or cells: HEK-293T
Description: as §1, §2, §3, §4, §5, §6, §7, §8, §9, §10, §11, §12, §13, §14, §15, §16, §17, §18, §19, §20, §21, §22, §23, §24, §25

[8] = biological target: T6, GLP-1R mutants (Homo sapiens, UniProt P43220, Y145Q); experiment: cAMP accumulation, single-point mutated GLP-1R; format: cell-based; settings: GLP-1R Y145(1.40b)Q, HEK-293T, 40 min, TR-FRET, mean ± S.E.M., n at least 3
T6 construct: expressed in transfected cells; host or cells: HEK-293T
Description: as §1, §2, §3, §4, §5, §6, §7, §8, §9, §10, §11, §12, §13, §14, §15, §16, §17, §18, §19, §20, §21, §22, §23, §24, §25

[9] = biological target: T7, GLP-1R mutants (Homo sapiens, UniProt P43220, E138R); experiment: cAMP accumulation, single-point mutated GLP-1R; format: cell-based; settings: GLP-1R E138(1.33b)R; HEK-293T, 40 min, TR-FRET; mean ± S.E.M., n at least 3
T7 construct: expressed in transfected cells; host or cells: HEK-293T
Description: as §1, §2, §3, §4, §5, §6, §7, §8, §9, §10, §11, §12, §13, §14, §15, §16, §17, §18, §19, §20, §21, §22, §23, §24, §25

[10] = biological target: T8, GLP-1R mutants (Homo sapiens, UniProt P43220, R299A); experiment: cAMP accumulation, single-point mutated GLP-1R; format: cell-based; settings: GLP-1R R299(ECL2)A, HEK-293T, 40 min, TR-FRET, mean ± S.E.M., n at least 3
T8 construct: expressed in transfected cells; host or cells: HEK-293T
Description: as §1, §2, §3, §4, §5, §6, §7, §8, §9, §10, §11, §12, §13, §14, §15, §16, §17, §18, §19, §20, §21, §22, §23, §24, §25

[11] = biological target: T9, GLP-1R mutants (Homo sapiens, UniProt P43220, W39A); experiment: cAMP accumulation, single-point mutated GLP-1R; format: cell-based; settings: GLP-1R W39(ECD)A, HEK-293T, 40 min, TR-FRET, mean ± S.E.M., n at least 3
T9 construct: expressed in transfected cells; host or cells: HEK-293T
Description: as §1, §2, §3, §4, §5, §6, §7, §8, §9, §10, §11, §12, §13, §14, §15, §16, §17, §18, §19, §20, §21, §22, §23, §24, §25

[12] = 12 mg, ref Jastreboff AM et al (supplement ref 19)
[13] = ref Rosenstock J et al (supplement ref 20)

T1 sequence (P43220 24-463 E364A): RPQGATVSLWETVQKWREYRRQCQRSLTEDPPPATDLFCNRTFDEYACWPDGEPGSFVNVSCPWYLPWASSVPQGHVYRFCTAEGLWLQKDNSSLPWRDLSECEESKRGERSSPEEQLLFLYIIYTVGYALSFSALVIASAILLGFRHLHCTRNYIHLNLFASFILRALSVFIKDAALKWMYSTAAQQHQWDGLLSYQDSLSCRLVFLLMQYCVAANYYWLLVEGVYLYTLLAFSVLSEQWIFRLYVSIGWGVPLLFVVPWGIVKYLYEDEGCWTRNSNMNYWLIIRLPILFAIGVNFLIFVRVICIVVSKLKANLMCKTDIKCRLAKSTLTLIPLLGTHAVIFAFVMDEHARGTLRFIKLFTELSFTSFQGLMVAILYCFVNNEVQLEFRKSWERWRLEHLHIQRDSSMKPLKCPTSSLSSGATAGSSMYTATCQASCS
T5 sequence (P43220 24-463 W91A): as the sequence (P43220 24-463 E364A) above, with W68A, A341E counted along it
T6 sequence (P43220 24-463 Y145Q): as the sequence (P43220 24-463 E364A) above, with Y122Q, A341E counted along it
T3 sequence (P43220 24-463 Y205A): as the sequence (P43220 24-463 E364A) above, with Y182A, A341E counted along it
T9 sequence (P43220 24-463 W39A): as the sequence (P43220 24-463 E364A) above, with W16A, A341E counted along it
T4 sequence (P43220 24-463 W214A): as the sequence (P43220 24-463 E364A) above, with W191A, A341E counted along it
T7 sequence (P43220 24-463 E138R): as the sequence (P43220 24-463 E364A) above, with E115R, A341E counted along it
T2 sequence (P43220 24-463 E387A): as the sequence (P43220 24-463 E364A) above, with A341E, E364A counted along it
T8 sequence (P43220 24-463 R299A): as the sequence (P43220 24-463 E364A) above, with R276A, A341E counted along it

CC[C@H](C)[C@H](NC(=O)[C@H](Cc1ccccc1)NC(=O)[C@H](C)NC(=O)C(C)(C)NC(=O)[C@H](CCC(N)=O)NC(=O)[C@H](C)NC(=O)[C@H](CCCCNC(=O)COCCOCCNC(=O)CC[C@H](NC(=O)CCCCCCCCCCCCCCCCCCC(=O)O)C(=O)O)NC(=O)[C@H](CCCCN)NC(=O)[C@H](CC(=O)O)NC(=O)[C@H](CC(C)C)NC(=O)[C@](C)(CC(C)C)NC(=O)[C@@H](NC(=O)[C@H](CO)NC(=O)[C@H](Cc1ccc(O)cc1)NC(=O)[C@H](CC(=O)O)NC(=O)[C@H](CO)NC(=O)[C@@H](NC(=O)[C@H](Cc1ccccc1)NC(=O)[C@@H](NC(=O)CNC(=O)[C@H](CCC(N)=O)NC(=O)C(C)(C)NC(=O)[C@@H](N)Cc1ccc(O)cc1)[C@@H](C)O)[C@@H](C)O)[C@@H](C)CC)C(=O)N[C@@H](CCC(=O)O)C(=O)N[C@@H](Cc1ccc(O)cc1)C(=O)N[C@@H](CC(C)C)C(=O)N[C@@H](CC(C)C)C(=O)N[C@@H](CCC(=O)O)C(=O)NCC(=O)NCC(=O)N1CCC[C@H]1C(=O)N[C@@H](CO)C(=O)N[C@@H](CO)C(=O)NCC(=O)N[C@@H](C)C(=O)N1CCC[C@H]1C(=O)N1CCC[C@H]1C(=O)N1CCC[C@H]1C(=O)N[C@@H](CO)C(N)=O [retatrutide]
participants with weight reduction of 5% or more ([1]; 8 mg or 12 mg, ref Jastreboff AM et al (supplement ref 19)): All the participants
participants who lost 20% or more of baseline weight [1, 12]: nearly two thirds
participants who lost 25% or more of baseline weight [1, 12]: nearly half
participants who lost 30% or more of baseline weight [1, 12]: a quarter
average weight loss ([1]; 24 weeks): 17.5%
least-squares mean percentage change in body weight ([1]; 24 weeks, 12-mg group, placebo –1.6%, ref Jastreboff AM et al (supplement ref 19)): –17.5%
least-squares mean percentage change in body weight ([1]; 24 weeks, combined 4-mg group, placebo –1.6%, ref Jastreboff AM et al (supplement ref 19)): –12.9%
least-squares mean percentage change in body weight ([1]; 24 weeks, combined 8-mg group, placebo –1.6%, ref Jastreboff AM et al (supplement ref 19)): –17.3%
participants who lost at least 15% of body weight (up to) ([1]; 36 weeks, ref Rosenstock J et al (supplement ref 20)): Up to 63%
average weight loss ([1]; 48 weeks): 24.2%
least-squares mean percentage change in body weight ([1]; 48 weeks, 12-mg group, placebo –2.1%, ref Jastreboff AM et al (supplement ref 19)): –24.2%
least-squares mean percentage change in body weight ([1]; 48 weeks, combined 4-mg group, placebo –2.1%, ref Jastreboff AM et al (supplement ref 19)): –17.1%
least-squares mean percentage change in body weight ([1]; 48 weeks, combined 8-mg group, placebo –2.1%, ref Jastreboff AM et al (supplement ref 19)): –22.8%
blood pressure ([1]; dose-dependent, ref Rosenstock J et al (supplement ref 20)): reduction of blood pressure
frequency of gastrointestinal events by starting dose ([1]; in vivo): occurred more frequently
heart rate ([1]; in vivo): Dose-dependent increases
mitigation of gastrointestinal adverse events by lower starting dose ([1]; in vivo): partially mitigated
participants with gastrointestinal adverse events ([1]; in vivo): 35%
safety profile ([1]; in vivo): safety profile comparable to certain approved GLP-1RAs
severity of most common (gastrointestinal) adverse events ([1]; in vivo): mild to moderate in severity
glycemic control ([1]; phase 2, type 2 diabetes): significant improvements in glycemic control
weight reduction ([1]; phase 2, type 2 diabetes): substantial weight reduction
glycemic control [1, 13]: clinically improvements in glycemic control
non-HDL cholesterol [1, 13]: reduction
reduction of triglycerides [1, 13]: ~ 35%
Emax ± S.E.M. (% WT) [2]: 98.84 ± 4.77 % WT
EC50 ([2]; ***P < 0.001): 0.0407 nM
EC50 [3]: 0.00933 nM
Emax ± S.E.M. (% WT) [3]: 100.40 ± 3.44 % WT
change of retatrutide potency by mutation [4]: modestly increased
Emax ± S.E.M. (% WT) [5]: 101.35 ± 4.70 % WT
EC50 ([5]; **P < 0.01): 0.0389 nM
EC50 [6]: 0.00562 nM
Emax ± S.E.M. (% WT) [6]: 100.98 ± 3.27 % WT
Emax ± S.E.M. (% WT) [7]: 102.36 ± 4.73 % WT
EC50 ([7]; ****P < 0.0001): 0.0832 nM
EC50 ([8]; ****P < 0.0001): 0.355 nM
Emax ± S.E.M. (% WT) ([8]; ***P < 0.001): 73.89 ± 5.95 % WT
EC50 [9]: 0.00355 nM
Emax ± S.E.M. (% WT) [9]: 100.84 ± 3.40 % WT
Emax ± S.E.M. (% WT) [10]: 101.97 ± 3.92 % WT
EC50 ([10]; ***P < 0.001): 0.0417 nM
Emax ± S.E.M. (% WT) [11]: 101.39 ± 3.58 % WT
EC50 ([11]; **P < 0.01): 0.0389 nM
